{"source": "patent EP3019008B1", "about": "“USE OF AN ISOPROPANOL-CONTAINING SOLUTION TO COMBAT CALCIVIRIDAE” (Schülke & Mayr GmbH, priority 2013, dated 2015)", "key": {"murine norovirus [1]": {"test_system": "murine norovirus", "experiment": "Modified test EN 1500, hygienic disinfection of the hands of test persons contaminated with virus", "format": "in vivo", "conditions": "5 test persons", "experimental": "Method B:: Modified test EN 1500 \"Hygienic disinfection of the hands\"\nThe test is based upon EN 1500 (practical test method for the hygienic disinfection of the hands).\nIn the tests, the hands of test persons are contaminated with 3 ml of murine norovirus, namely both the hands of the test persons of the reference group and the hands of the test persons of the test group. A sample is then taken (1 min) before the disinfection. After that, the test persons of each group disinfect their hands with disinfection agent. The test persons of the reference group disinfect twice with 3 ml of a reference product in each case, the reference product being allowed to act for 30 sec and rubbed in after each disinfection. The test persons of the test group instead disinfect twice with 3 ml of the disinfection agent to be tested. After that, a sample is taken […] (1 min), both in the reference group and in the test group.\nThe test persons of the respective group are then swapped over in a second test."}, "murine norovirus [2]": {"test_system": "murine norovirus", "conditions": "highest concentration tested of 60% by volume, non-living surfaces, Magulski et al.; cited from earlier work"}, "RAW cells ATCC TIB-71": {"test_system": "RAW cells ATCC TIB-71", "experiment": "Cytotoxicity control (CD50) of the EN 14476 suspension test", "parameters": "unit not given beside the values", "conditions": "reference inactivation, PBS", "experimental": "Virus control: The virus titre for the murine norovirus amounted to 7.50 ± 0.47 TCID50 / 0·1 ml and thus to 8.50 ± 0.47 TCID50 / ml. The demonstrable titre reduction thus amounted to ≥ 4.00 lg^10. […] Reference The reduction factor of 0.7% formaldehyde amounted to 2·33 log^10 inactivation after 30 min exposure time and to 3.17 log^10 after 60 min exposure time."}, "[3]": {"test_system": "murine norovirus, strain S 99 Berlin", "experiment": "Quantitative suspension test of virucidal effect according to EN 14476 (low stressing)", "conditions": "for log reduction at 0.7 %: Norwalk virus, read-out: reduction factor; for log10-TCID50 / 0·1 ml after ... min murine norovirus: reference inactivation, PBS", "description": "Method A:Quantitative suspension test of virucidal effect according to EN 14476: Murine norovirus (low stressing)\nMethodology:EN 14476:2005-04/A1:2006-10 and PrEN 14476:2011: Chemical disinfection agents and antiseptics - Quantitative suspension test of virucidal effect for chemical disinfection agents and antiseptics used in human medicine, Test methods and requirements (phase 2, stage 1)\nIn order to achieve the concentration of 97%, 0·1 ml of the virus, 0.2 ml of the 5-fold concentrated stressing substance and 9.7 ml of the product are mixed. After the termination of the exposure time, the effect of the disinfection agent is stopped by dilution (or gel filtration) and a series of dilutions in accordance with the progression 1:10/ 1:100 / 1:1,000 etc. is applied in order to determine the residual virus content. The titration is carried out in the microtitre system on 96-well plates.\nTitration method: • Virus titration on cells as monolayers in 96-well microtitration plates. 0.5ml of product test solution is diluted with 4.5 ml of ice-cold DMEM + 2% FBS to a dilution of 10^-8. 100 µl of each dilution was pipetted into 6 wells of the microtitration plate. Method of terminating the effect of the product and reducing the cytotoxicity: • Gel filtration with MicroSpin columns and dilution to 10^-4 within 10 sec with ice-cold DMEM + 2% FBS\nThe TCID50 was calculated in accordance with the method of Spearman and Kärber. m = xk + d/2−d∑pi [formula] • m = negative logarithm of the titre in relation to the test volume • Xk = logarithm of the smallest dilution stage in which all the test objects react positively • d = logarithm of the dilution factor • pi = observed reaction rate\nRF = log(viruscontrol)−log(testproduct) [formula] KRF = sqrt(((2Sm(control)))^2 + ((2Sm(residualtitre)))^2) [formula] • KRF = 95% confidence interval of the reduction factor • Sm = standard deviation of the logarithmized titre"}}, "note": "Read-outs that look alike come from different tables or passages of the source.", "data": [{"smiles": "CCO", "note": "[Ethanol 70% w/w, Ethanol]", "values": [{"measurement": "Average after disinfection", "setting": "murine norovirus [1]; 2 x 30 s with 3 ml each", "result": 3.02, "unit": "log TCID50/ml"}, {"measurement": "Average before disinfection", "setting": "murine norovirus [1]; baseline before disinfection", "result": 5.6, "unit": "log TCID50/ml"}, {"measurement": "RF", "setting": "murine norovirus [1]; reduction factor, 2 x 30 s with 3 ml each", "result": 2.58, "unit": "log TCID50/ml"}]}, {"smiles": "CC(C)O", "note": "[isopropanol]", "values": [{"measurement": "effectiveness compared with ethanol and n-propanol", "setting": "murine norovirus [2]", "result": "three decadic levels below the effectiveness of ethanol and n-propanol"}]}, {"smiles": "C=O", "note": "[Formaldehyde 0·7% (V/V), Formaldehyde]", "values": [{"measurement": "CD50", "setting": "RAW cells ATCC TIB-71", "result": "≤ 3.5"}, {"measurement": "log reduction at 0.7 %", "setting": "[3]; 0.5 h", "result": 2.33}, {"measurement": "log reduction at 0.7 %", "setting": "[3]; 1 h", "result": 3.17}, {"measurement": "log10-TCID50 / 0·1 ml after ... min murine norovirus", "setting": "[3]; residual titre after 5 min", "result": "6.33 ± 0.33", "unit": "log10-TCID50 / 0·1 ml"}, {"measurement": "log10-TCID50 / 0·1 ml after ... min murine norovirus", "setting": "[3]; residual titre after 15 min", "result": "5.67 ± 0.54", "unit": "log10-TCID50 / 0·1 ml"}, {"measurement": "log10-TCID50 / 0·1 ml after ... min murine norovirus", "setting": "[3]; residual titre after 30 min", "result": "5.17 ± 0.56", "unit": "log10-TCID50 / 0·1 ml"}, {"measurement": "log10-TCID50 / 0·1 ml after ... min murine norovirus", "setting": "[3]; residual titre after 60 min", "result": "4.33 ± 0.33", "unit": "log10-TCID50 / 0·1 ml"}]}]}
